Measured values taken from ChEMBL document CHEMBL1201862, “PubChem BioAssay data set” (2004).
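Protocol summary: plate cells (96-well), add compound at 5 concentrations, incubate 48 h, interpolate endpoints linearly. GI50 is the concentration that inhibits growth by half.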 Calls of active or inactive are those of the source. No stated cut-off is given here; in the data, active = GI50 up to about 1.1 µM and inactive = higher.

Experiments:
Assay in all cases: DTP human tumour cell line panel, 48 h
SNB-78 = system: SNB-78
XF498 = system: XF498
DLD-1 = system: DLD-1
RXF 631 = system: RXF 631
DMS-273 = system: DMS-273
DMS-114 = system: DMS-114
MCF7 = system: MCF7
MDA-N = system: MDA-N
NCI/ADR-RES = system: NCI/ADR-RES

SMILES | GI50 (SNB-78) | GI50 (XF498) | GI50 (DLD-1) | GI50 (RXF 631) | GI50 (DMS-273) | GI50 (DMS-114) | GI50 (MCF7) | GI50 (MDA-N) | GI50 (NCI/ADR-RES)
CCOCN1COCN(C)C1=O | > 100 µM (inactive) | > 100 µM (inactive) | > 100 µM (inactive) | > 100 µM (inactive) | > 100 µM (inactive) | – | – | – | –
COc1ccc(C(=O)/C(=N/Nc2ccccc2)c2ccc(OC)cc2)cc1 | > 100 µM (inactive) | > 100 µM (inactive) | 6.87 µM (inactive) | 8.43 µM (inactive) | 31.6 µM (inactive) | 58.1 µM (inactive) | – | – | –
COc1ccc(/C=C/c2cc(OC)c(OC)c(OC)c2)cc1 | 17.8 µM (inactive) | 0.592 µM (active) | 0.897 µM (active) | 3.73 µM (inactive) | 2.8 µM (inactive) | 27 µM (inactive) | – | – | –
COc1cc2c(c(OC)c1OC)-c1ccc(SC)c(=O)cc1C(CC(=O)Oc1cccc([N+](=O)[O-])c1)C2 (stereo not drawn) | 0.481 µM (active) | 0.74 µM (active) | 0.933 µM (active) | 0.502 µM (active) | 0.364 µM (active) | 0.312 µM (active) | – | – | –
C=C1CC2CC[C@@]34C[C@H]5O[C@@H]6C(O[C@H]7CC[C@H](CC(=O)OC8[C@H](C)C9OC%10C[C@]%11(C[C@@H]%12O[C@]%13(C[C@H](C)[C@@H]%14O[C@H]([C@H](O)C[C@H](O)CO)C[C@@H]%14O%13)C[C@H](C)[C@@H]%12O%11)OC%10CC9O[C@H]8C[C@H]8O[C@H](CC[C@@H]1O2)C[C@@H](C)C8=C)O[C@H]7[C@@H]6O3)[C@@H]5O4 (stereo partly drawn) | 0.00261 µM (active) | 0.00123 µM (active) | 0.0018 µM (active) | – | 0.000538 µM (active) | 0.00037 µM (active) | 0.000255 µM (active) | 0.0001 µM (active) | 0.000516 µM (active)
Cc1ccc(/C=C/C(=O)C(C)(C)CN2CCCCC2)cc1 | 7.29 µM (inactive) | 11.7 µM (inactive) | – | 14.5 µM (inactive) | 3.02 µM (inactive) | – | – | – | –
O=C(O/C(=C(/N=N/c1ccccc1)c1ccccc1)c1ccccc1)c1ccccc1 | > 100 µM (inactive) | > 100 µM (inactive) | 89.1 µM (inactive) | 16.7 µM (inactive) | – | > 100 µM (inactive) | – | – | –
Cn1c(=O)nc2n(-c3cc(Cl)ccc3Cl)c3ccccc3nc-2c1=O | 13.5 µM (inactive) | 7.76 µM (inactive) | 1.53 µM (inactive) | – | 3.67 µM (inactive) | 2.11 µM (inactive) | – | – | –
CCN(CC)c1ccc2c(c1)Oc1ccc(N(CC)CC)cc1C21Oc2ccccc2-c2c1c1ccccc1n2CC (stereo not drawn) | 7.36 µM (inactive) | 1.06 µM (active) | 3.48 µM (inactive) | 6.1 µM (inactive) | 3.4 µM (inactive) | 0.506 µM (active) | – | – | –
Cc1c2ccccc2c(C)c2c3c(ccc12)C(=O)C=CC3=O | 16.3 µM (inactive) | 17 µM (inactive) | 18.5 µM (inactive) | – | 64.7 µM (inactive) | 11.8 µM (inactive) | – | – | –
CC(=O)N(C)c1ccc2ncccc2c1[N+](=O)[O-] | > 100 µM (inactive) | > 100 µM (inactive) | > 100 µM (inactive) | – | > 100 µM (inactive) | > 100 µM (inactive) | – | – | –
CC1CCC[P+](Cc2ccccc2)(c2ccccc2)CC1 (stereo not drawn) | 48.3 µM (inactive) | 21.4 µM (inactive) | > 100 µM (inactive) | > 100 µM (inactive) | 33.6 µM (inactive) | 18.5 µM (inactive) | – | – | –
O=S(=O)(Cc1ccccc1)SCc1ccccc1 | 19.3 µM (inactive) | – | 7.71 µM (inactive) | 19.1 µM (inactive) | 29.9 µM (inactive) | 17.5 µM (inactive) | – | – | –
CCN(CC)/[N+]([O-])=N/OCC(C)O (stereo not drawn) | > 100 µM (inactive) | > 100 µM (inactive) | – | > 100 µM (inactive) | > 100 µM (inactive) | > 100 µM (inactive) | – | – | –
Cc1ccc(S(=O)OCc2c(C)c(C)c(COS(=O)c3ccc(C)cc3)c(C)c2C)cc1 (stereo not drawn) | 31.6 µM (inactive) | > 100 µM (inactive) | > 100 µM (inactive) | – | > 100 µM (inactive) | > 100 µM (inactive) | – | – | –
O=C(N/C(=C\c1cc(Cl)ccc1Cl)c1nc2ccccc2[nH]1)c1ccccc1 | 45.4 µM (inactive) | 26.9 µM (inactive) | 17.1 µM (inactive) | 22.3 µM (inactive) | – | 35.3 µM (inactive) | – | – | –
CCCN(CCCC(NC(C)=O)C(=O)NCc1ccccc1)C(=O)N(C)N=O (stereo not drawn) | > 100 µM (inactive) | > 100 µM (inactive) | > 100 µM (inactive) | – | > 100 µM (inactive) | > 100 µM (inactive) | – | – | –
COC1OC(CO)C(O)C1N (stereo not drawn) | > 100 µM (inactive) | – | > 100 µM (inactive) | > 100 µM (inactive) | – | > 100 µM (inactive) | – | – | –
[C-]#[N+]C(C)(C)C[C@H]1CC(C)C2CCC(C)C3([N+]#[C-])CCC(=C)C1[C@H]23 (stereo partly drawn) | 0.249 µM (active) | 2.62 µM (inactive) | 0.269 µM (active) | 1.86 µM (inactive) | 0.286 µM (active) | – | – | – | –
Cc1c(Cl)cccc1NC(=O)C(=O)C(C(=O)c1ccccc1-c1ccccc1)C1OC(=O)c2ccccc21 (stereo not drawn) | 22.2 µM (inactive) | 11.5 µM (inactive) | 22.8 µM (inactive) | 23.7 µM (inactive) | 24.4 µM (inactive) | 16 µM (inactive) | – | – | –
C=CC/N=C1/N=C(CC(=O)OCC)CS1 | > 100 µM (inactive) | > 100 µM (inactive) | > 100 µM (inactive) | – | > 100 µM (inactive) | > 100 µM (inactive) | – | – | –
Cc1ccc(NC(=O)C(=O)Cc2cc[n+]([O-])cc2)cc1 | > 100 µM (inactive) | > 100 µM (inactive) | > 100 µM (inactive) | – | > 100 µM (inactive) | > 100 µM (inactive) | – | – | –
NNC(=O)N/N=C1\C(=O)N(c2nccs2)C(=O)C(=O)C1c1nc2ccccc2s1 (stereo not drawn) | > 100 µM (inactive) | > 100 µM (inactive) | > 100 µM (inactive) | > 100 µM (inactive) | > 100 µM (inactive) | > 100 µM (inactive) | – | – | –
